Test results as given in patent US20220008350A1, “PROCESS FOR ENGINEERING TARGETED NANOPARTICLES” (University of North Texas Health Science Center, priority 2018, published 2022).

Tests used:
[1] = system: integrin αVβ3 surface expression in C4-2B prostate cancer cells; test: αVβ3 protein stimulation and verification (immunocytochemistry); type: cell-based, human; conditions: C4-2B cells, 200 ng/mL CXCL12, after first hour, constant for 12 hours
Experimental: αVβ3 Protein Stimulation and Verification. C4-2B cells were grown on glass coverslips in a six-well dish and then stimulated to express αVβ3 by treatment with 200 ng/mL of recombinant human CXCL12 (R&D Systems, Minneapolis, Minn.) for 1, 6, or 12 hours at 37° C. After cells were stimulated they were rinsed with PBS, fixed with 4% formaldehyde (Affymetrix) for 10 min at room temperature, washed twice with PBS, and blocked for 1 hour with 1% BSA in PBS. Next cells were incubated for 4 hours with a 1:100 dilution of anti-integrin αVβ3 antibody, clone LM609 (Millipore). Incubation was followed by three washes with PBS, and then incubated for 45 minutes with a 1:200 dilution of the goat anti-mouse IgG (H+L) secondary antibody, Alexa Fluor 488 conjugate (Life Technologies). Cells were washed twice more and mounted on slides with Prolong Gold antifade reagent with DAPI (Invitrogen). Fluorescent images were taken with Olympus AX70 Florescent Microscope.

[2] = molecular target: ATP-dependent drug efflux pump glycoprotein (P-gp) (Homo sapiens, UniProt P08183); conditions: cited from earlier work
Sequence of ATP-dependent drug efflux pump glycoprotein (P-gp) (P08183 whole entry): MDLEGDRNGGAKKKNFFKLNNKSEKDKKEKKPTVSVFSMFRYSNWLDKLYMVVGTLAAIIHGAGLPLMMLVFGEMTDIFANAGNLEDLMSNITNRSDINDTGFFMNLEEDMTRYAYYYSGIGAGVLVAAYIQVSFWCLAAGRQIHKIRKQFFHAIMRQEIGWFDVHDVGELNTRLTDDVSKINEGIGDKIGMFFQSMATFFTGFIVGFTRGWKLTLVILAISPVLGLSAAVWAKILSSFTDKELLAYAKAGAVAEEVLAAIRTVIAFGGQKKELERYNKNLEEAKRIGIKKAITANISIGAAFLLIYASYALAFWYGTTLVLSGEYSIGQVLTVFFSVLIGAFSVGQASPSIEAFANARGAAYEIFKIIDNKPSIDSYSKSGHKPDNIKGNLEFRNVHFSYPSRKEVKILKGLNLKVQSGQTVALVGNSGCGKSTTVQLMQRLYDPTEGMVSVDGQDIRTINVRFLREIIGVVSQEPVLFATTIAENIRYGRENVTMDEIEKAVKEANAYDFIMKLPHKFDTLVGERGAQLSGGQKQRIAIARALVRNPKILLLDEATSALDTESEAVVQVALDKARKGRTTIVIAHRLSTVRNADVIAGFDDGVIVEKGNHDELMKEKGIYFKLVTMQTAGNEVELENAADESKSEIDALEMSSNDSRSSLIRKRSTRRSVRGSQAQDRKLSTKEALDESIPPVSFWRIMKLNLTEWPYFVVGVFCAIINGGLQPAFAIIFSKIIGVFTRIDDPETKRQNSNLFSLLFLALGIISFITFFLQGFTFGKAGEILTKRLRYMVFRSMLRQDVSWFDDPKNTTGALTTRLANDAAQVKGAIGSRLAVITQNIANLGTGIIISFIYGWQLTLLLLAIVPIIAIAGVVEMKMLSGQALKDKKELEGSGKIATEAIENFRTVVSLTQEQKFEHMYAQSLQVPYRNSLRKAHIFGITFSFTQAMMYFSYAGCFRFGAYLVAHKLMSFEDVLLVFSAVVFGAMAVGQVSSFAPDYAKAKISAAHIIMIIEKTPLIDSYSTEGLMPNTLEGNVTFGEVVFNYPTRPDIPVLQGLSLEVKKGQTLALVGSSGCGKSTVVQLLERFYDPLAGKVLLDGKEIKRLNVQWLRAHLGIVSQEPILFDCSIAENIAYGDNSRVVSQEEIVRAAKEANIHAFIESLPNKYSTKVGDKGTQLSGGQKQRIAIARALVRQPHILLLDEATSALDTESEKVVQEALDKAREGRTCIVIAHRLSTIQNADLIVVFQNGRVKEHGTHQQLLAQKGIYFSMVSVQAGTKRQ

[3] = In vivo bone retention (intraosseous injection); conditions: injected into mouse tibia, live animal imaging up to 72 hours, NIR dye
Experimental: In vivo bone retention. […] Animals were imaged initially and at time points: 1 hour, 24 hours, 48 hours, and 72 hours to assess for NIR signal on IVIS animal imager. Fluorescent signal was quantified at each time and compared to the signal for the initial time point of each mouse to give the percentage of retained nanoparticle in the bone. Additionally, half-life of nanoparticle signal in the bone was calculated with the following equation: N(t)=N0(½)^(t/t1/2).

In the case of “C-X-C motif chemokine ligand 12 [CXCL12]”, the “increase in expression level of αVβ3” value [1] is reported as “approximately 2 fold”.
For CO[C@H]1C(=O)[C@]2(C)[C@@H](OC)C[C@H]3OC[C@@]3(OC(C)=O)[C@H]2[C@H](OC(=O)c2ccccc2)[C@]2(O)C[C@H](OC(=O)[C@H](O)[C@@H](NC(=O)OC(C)(C)C)c3ccccc3)C(C)=C1C2(C)C [Cabazitaxel], the “substrate affinity for P-gp” value [2] is given as “lower substrate affinity”.
In the case of CCCN1C(=CC=C2CCCC(C=CC3=[N+](CCC)c4ccccc4C3(C)C)=C2Cl)C(C)(C)c2ccccc21.[I-] [dye, IR-780 dye], the “retention and half-life in the bone” value [3] is reported as “equivalent regarding retention in the bone”.
